Source: US12594265B2, “Methods and compositions for inhibition of STAT3” (Ohio State Innovation Foundation, priority 2017, dated 2026)
Entries after “also recorded” stand apart in the source; their conditions may differ.

System: IL-17 production in myelin-specific CD4 T cells
Test: Inhibition of IL-17 production in myelin-specific CD4 T cells (splenocytes activated with MBP Ac1-11 plus TGF-β and IL-6; flow cytometry, ELISA)
Type: cell-based, mice
Settings: 3 days; for suppression of IL-17 production in myelin-specific CD4 T cells (in words): in vitro; for suppression of IL-17 production: murine myelin-specific CD4 T cells
Experimental: In vitro culture of splenocytes from TCR transgenic mice. Splenocytes were prepared from naïve 5-10-wk-old Vα2.3/Vβ8.2 TCR transgenic mice and cultured in 24-well plates at […] with irradiated B10.PL splenocytes (6×10^8 cells/well). Cells were activated with of MBP Ac1-11 (10 μg/ml) and different combination of cytokines or neutralizing antibodies for cytokines to differentiate effector T helper cells. Cytokines and antibody concentrations were as follows: 0.5 ng/ml IL-12, 25 ng/ml IL-6, 1 ng/ml TGFβ1, 2 μg/ml anti-IFNγ, 1 μg/ml anti-IL-12, 2 μg/ml anti-IL-4, and 0.35 μg/ml anti-TGFβ (Yang, Weiner et al. 2009).
ELISA Assay. ELISA was performed to detect the expression of IL-17 and IFNγ in supernatant. Purified anti-mouse IL-17 primary antibody (BD bioscience) was diluted in 0.1 M NaHCO3 (pH 8.2) at 2 μg/ml while purified anti-mouse IFNγ primary antibody was diluted in 0.1M NaHCO3 (pH 9.5) at 2 μg/ml. Immunolon II plates (Dynatech Laboratories) were coated with 50 μl of primary antibodies per well and incubated overnight at 4° C. The plates were washed twice with PBS/0.05% Tween 20. The plates were blocked with 200 μl of 1% BSA in PBS per well for 2 h. The plates were washed twice with PBS/0.05% Tween 20, and 100 μl of supernatants were added in duplicate. The plates were incubated over-night at 4° C. and washed four times with PBS/0.05% Tween 20. Biotinylated rat anti-mouse secondary antibody (BD bioscience) were diluted in PBS/1% BSA, 100 μl of 1 μg/ml biotinylated antibody was added to each well, and plates were incubated at room temperature for 1 h. The plates were washed six times with PBS/0.05% Tween 20, and 100 μl avidin-peroxidase was added at 2.5 μg/ml and incubated for 30 min. The plates were washed eight times with PBS/0.05% Tween 20, and 100 μl ABTS substrate containing 0.03% H2O2 (for IL-17) or TMB substrate (for IFNγ) was added to each well. The plate was monitored for 10-20 min for color development and read at A 405. A standard curve was generated from cytokine standard, and the cytokine concentration in the samples was calculated.
Intracellular staining and flow cytometric analysis. Flow cytometric analysis was performed to evaluate the expression of surface markers and T-bet in CD4 T cells, as previously described (Yang, Weiner et al. 2009). Briefly, splenocytes were activated with antigen or αCD3/CD28 for 48 to 72 hours. Cells were then collected, washed, and resuspended in staining buffer (1% BSA in PBS). The cells were incubated with mAbs to the cell-surface markers for 30 min at 4° C. After washing twice with staining buffer, cells were fixed and permeabilized using Cytofix/Cytoperm solution for 20 min at 4° C. […] 80,000-100,000 live cell events were acquired on a FACSCanto (BD) and analyzed using FlowJo software (Tree Star, Inc.). […]

## NS(=O)(=O)c1cccc2c1C(=O)c1cccc(O)c1C2=O [LLL12]
  suppression of IL-17 production in myelin-specific CD4 T cells (in words): inhibition of IL-17

## CN(C)C(=O)Oc1cccc2c1C(=O)c1cccc(S(N)(=O)=O)c1C2=O [LLL12b]
0.25 μM
  suppression of IL-17 production: 44%
0.50 μM
  suppression of IL-17 production: 72%
  suppression of IL-17 production in myelin-specific CD4 T cells (in words): significantly suppress IL-17 production; also recorded: inhibits myelin-specific IL-17 production in a dose-dependent manner
